According to US6908745B2, “Gamma sterilizable culture medium for the identification of yeasts and fungi” (Biotest AG, priority 2001, dated 2005):

System: bacteria
Assay: Antibacterial effect of antibiotics after γ-radiation
Conditions: γ-radiation with 25 kGray
Procedure: In the pharmaceuticals industry are sought γ-sterilized media for use in clean room areas and isolators. These clean room areas must be monitored for microbial contamination, and the product (that is, the microbiological nutrient medium) itself, with which this monitoring is carried out, should not introduce any contamination, but be sterile. The microbiological media are not completely sterile after autoclaving and filling into, for example, Petri dishes or other agar carriers, but have contamination rates in the order of magnitude of 0.1 to approx. 1%. Only as a result of an additional γ-sterilization (or β-sterilization) with high-energy radiation are killed the residual existing contaminations and a sterile product is obtained. However, many antibiotics are destroyed as a result of the γ-sterilization, so that afterward in selective media for yeasts and fungi whose selectivity is based on the addition of antibiotics, this selectivity no longer exists.

| Compound | antibacterial effect after γ-radiation |
| --- | --- |
| O=C(N[C@H](CO)[C@H](O)c1ccc([N+](=O)[O-])cc1)C(Cl)Cl [chloramphenicol] | completely destroyed |
| penicillin | essentially reduced |
